The values that follow are results of earlier work, collected in publication PMC11585628 (Nature Communications, 2024).

For this data set, the system named is SARS-CoV-2. To be noted: read-out: EC50 for antiviral effects.

Consider XR8-24, for which the 50% effective concentration (EC50) (usually the concentration at which the effect is half-maximal) is 1200 nM.
